The values that follow come from patent EP4755888A1 (ILAb Co., Ltd., priority 2023, dated 2025).

The term IC50 denotes the concentration that inhibits the measured activity by half.

A value given as a limit tells only on which side of the number the result lay.

The target of the assay is PD-1/PD-L1 (Homo sapiens, UniProt Q9NZQ7). Nature of the assay: TR-FRET PD-1/PD-L1 binding inhibition at the molecular level (free proteins). The following applies: Tag1-PD-L1 and Tag2-PD-1 proteins, twelve concentrations from 200 nM, 2 hours at room temperature, read-out: FRET assay (IC50). Put shortly: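 HTRF read-out at 665/620 nm after 2 h at room temperature. Detection used anti-Tag1 Eu cryptate plus anti-Tag2 XL665 antibodies. Tagged PD-L1 and PD-1 proteins were pre-mixed with compound across twelve […] 1:2 dilutions starting at 200 nM.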
Chain of PD-1/PD-L1 (Q9NZQ7 19-238 limits assumed): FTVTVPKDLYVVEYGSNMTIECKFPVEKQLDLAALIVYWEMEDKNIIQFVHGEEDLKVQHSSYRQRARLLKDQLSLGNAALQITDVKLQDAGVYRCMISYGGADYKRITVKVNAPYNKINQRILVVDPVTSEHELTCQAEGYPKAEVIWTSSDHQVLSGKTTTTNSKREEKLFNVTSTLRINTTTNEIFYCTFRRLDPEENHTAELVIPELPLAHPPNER
Turning to `CC(C)c1nc(Nc2cccc(-c3cccc(NC(=O)c4cc5n(n4)CCC[C@@H]5N4CC(C(=O)O)C4)c3Cl)c2Cl)c2ncccc2n1` [Compound 301, (S)-1-(2-((2,2'-dichloro-3'-((2-isopropyl-pyrido[3,2-d]pyrimidin-4-yl)amino)-[1,1'-biphenyl]-3-yl)carbamoyl)-4,5,6,7-tetrahydropyrazolo[1,5-a]pyridin-4-yl)azetidine-3-carboxylic acid], the IC50 lay in the range of 100 to 1000 nM. For `O=C(O)CNC1CCCn2nc(C(=O)Nc3cccc(-c4cccc(Nc5nccc6cc(CN7CC[C@@H](O)C7)cnc56)c4Cl)c3Cl)cc21` (stereo partly drawn) [Compound 26, 2-((2-((2,2'-dichloro-3'-((3-(((R)-3-hydroxypyrrolidin-1-yl)methyl)-1,7-naphthyridin-8-yl)amino)-[1,1'-biphenyl]-3-yl)carbamoyl)-4,5,6,7-tetrahydropyrazolo[1,5-a]pyridin-4-yl)amino)acetic acid] the value was under 10 nM. With `Cc1c(NC(=O)c2ccc(CN3CC[C@@H](O)C3)cn2)cccc1-c1cccc(NC(=O)c2cc3n(n2)CCCC3N2CC[C@@H](O)C2)c1C` (stereo partly drawn) [Compound 92, 4-((R)-3-hydroxypyrrolidin-1-yl)-N-(3'-(5-(((R)-3-hydroxypyrrolidin-1-yl)methyl)picolinamido)-2,2'-dimethyl-[1,1'-biphenyl]-3-yl)-4,5,6,7-tetrahydropyrazolo[1,5-a]pyridine-2-carboxamide], the IC50 is under 10 nM. For the compound `Cc1c(NC(=O)c2ccc(CN3CC[C@@H](O)C3)cn2)cccc1-c1cccc(NC(=O)c2cc3n(n2)CCCC3NC(C)(C)C(=O)O)c1C` (stereo partly drawn) [Compound 99, 2-((2-((3'-(5-(((R)-3-hydroxypyrrolidin-1-yl)methyl)picolinamido)-2,2'-dimethyl-[1,1'-biphenyl]-3-yl)carbamoyl)-4,5,6,7-tetrahydropyrazolo[1,5-a]pyridin-4-yl)amino)-2-methylpropanoic acid], the IC50 is under 10 nM.

Consider `O=C(Nc1cccc(-c2cccc(Nc3nc(C(F)F)nc4cc(CN5CC[C@@H](O)C5)cnc34)c2Cl)c1Cl)c1cc2n(n1)CCCC2N1CC[C@@H](O)C1` (stereo partly drawn) [Compound 140, N-(2,2'-dichloro-3'-((2-(difluoromethyl)-7-(((R)-3-hydroxypyrrolidin-1-yl)methyl)pyrido[3,2-d]pyrimidin-4-yl)amino)-[1,1'-biphenyl]-3-yl)-4-((R)-3-hydroxypyrrolidin-1-yl)-4,5,6,7-tetrahydropyrazolo[1,5-a]pyridine-2-carboxamide], for which the IC50 was 10 to 100 nM. For `COc1cc(-c2cccc(-c3cccc(NC(=O)c4cc5n(n4)CCCC5N4CC[C@@H](O)C4)c3Cl)c2Cl)cc(F)c1CNC(C)(C)C(=O)O` (stereo partly drawn) [Compound 128, 2-(((2',2"-dichloro-3-fluoro-3"-(4-((R)-3-hydroxypyrrolidin-1-yl)-4,5,6,7-tetrahydropyrazolo[1,5-a]pyridine-2-carboxamido)-5-methoxy-[1,1':3',1"-terphenyl]-4-yl)methyl)amino)-2-methylpropanoic acid] the value was under 10 nM.

For the compound `Cn1c(C(=O)Nc2cccc(-c3cccc(NC(=O)c4cc5n(n4)CCCC5NC(C)(C)C(=O)O)c3Cl)c2Cl)nc2c1CCN(CCC13CCC(C(=O)O)(CC1)C3)C2` (centres unmarked) [Compound 60, 4-(2-(2-((3'-(4-((2-carboxypropan-2-yl)amino)-4,5,6,7-tetrahydropyrazolo[1,5-a]pyridine-2-carboxamido)-2,2'-dichloro-[1,1'-biphenyl]-3-yl)carbamoyl)-1-methyl-6,7-dihydro-1H-imidazo[4,5-c]pyridin-5(4H)-yl)ethyl)bicyclo[2.2.1]heptane-1-carboxylic acid], the half-maximal inhibitory concentration (IC50) is under 10 nM. Turning to `O=C1CCC2(CN(C3CCCn4nc(C(=O)Nc5cccc(-c6cccc(Nc7nccc8cc(CN9CC[C@@H](O)C9)cnc78)c6Cl)c5Cl)cc43)C2)N1` (stereo partly drawn) [Compound 238, N-(2,2'-dichloro-3'-((3-(((R)-3-hydroxypyrrolidin-1-yl)methyl)-1,7-naphthyridin-8-yl)amino)-[1,1'-biphenyl]-3-yl)-4-(6-oxo-2,5-diazaspiro[3.4]octan-2-yl)-4,5,6,7-tetrahydropyrazolo[1,5-a]pyridine-2-carboxamide], the IC50 lay within 10 to 100 nM.

As for `Cc1c(NC(=O)c2cc3n(n2)CCCC3N2CCC(C(=O)O)CC2)cccc1-c1cccc(Nc2nccc3cc(CN4CC[C@@H](O)C4)cnc23)c1Cl` (stereo partly drawn) [Compound 44, 1-(2-((2'-chloro-3'-((3-(((R)-3-hydroxypyrrolidin-1-yl)methyl)-1,7-naphthyridin-8-yl)amino)-2-methyl-[1,1'-biphenyl]-3-yl)carbamoyl)-4,5,6,7-tetrahydropyrazolo[1,5-a]pyridin-4-yl)piperidine-4-carboxylic acid], the IC50 lay in the range of 10 to 100 nM.

For `CC(=O)NCCNC1CCCn2nc(C(=O)Nc3cccc(-c4cccc(NC(=O)c5nc6c(n5C)CCN(CCC57CCC(C(=O)O)(CC5)C7)C6)c4C)c3C)cc21` (centres unmarked) [Compound 46, 4-(2-(2-((3'-(4-((2-acetamidoethyl)amino)-4,5,6,7-tetrahydropyrazolo[1,5-a]pyridine-2-carboxamido)-2,2'-dimethyl-[1,1'-biphenyl]-3-yl)carbamoyl)-1-methyl-6,7-dihydro-1H-imidazo[4,5-c]pyridin-5(4H)-yl)ethyl)bicyclo[2.2.1]heptane-1-carboxylic acid], the IC50 was under 10 nM.

Consider `CN[C@@H]1CCCn2nc(C(=O)Nc3cccc(-c4cccc(NC(=O)c5ccc(CN6CC[C@@H](O)C6)cn5)c4C)c3C)cc21` [Compound 349, (R)-N-(3'-(5-(((R)-3-hydroxypyrrolidin-1-yl)methyl)picolinamido)-2,2'-dimethyl-[1,1'-biphenyl]-3-yl)-4-(methylamino)-4,5,6,7-tetrahydropyrazolo[1,5-a]pyridine-2-carboxamide], for which the IC50 lay within 10 to 100 nM. With `Cc1c(NC(=O)c2cc3n(n2)CCCC3NCCO)cccc1-c1cccc(-c2nc3cc(CN4CC[C@@H](C(=O)O)C4)cc(C#N)c3o2)c1C` (stereo partly drawn) [Compound 64, (3R)-1-((7-cyano-2-(3'-(4-((2-hydroxyethyl)amino)-4,5,6,7-tetrahydropyrazolo[1,5-a]pyridine-2-carboxamido)-2,2'-dimethyl-[1,1'-biphenyl]-3-yl)benzo[d]oxazol-5-yl)methyl)pyrrolidine-3-carboxylic acid] the figure was under 10 nM. For the compound `Cc1c(NC(=O)c2cc3n(n2)CCCC3NCCO)cccc1-c1cccc(NC(=O)c2cc3n(n2)CCCC3NCCO)c1C` (centres unmarked) [Compound 6, N,N'-(2,2'-dimethyl-[1,1'-biphenyl]-3,3'-diyl)bis(4-((2-hydroxyethyl)amino)-4,5,6,7-tetrahydropyrazolo[1,5-a]pyridine-2-carboxamide)], the IC50 was under 10 nM.

For the compound `O=C(Nc1cccc(-c2cccc(Nc3nccc4nccnc34)c2Cl)c1Cl)c1cc2n(n1)CCC[C@H]2N1CCC(C(=O)O)CC1` [Compound 256, (R)-1-(2-((2,2'-dichloro-3'-(pyrido[3,4-b]pyrazin-5-ylamino)-[1,1'-biphenyl]-3-yl)carbamoyl)-4,5,6,7-tetrahydropyrazolo[1,5-a]pyridin-4-yl)piperidine-4-carboxylic acid], the IC50 lay within 10 to 100 nM.

`Cc1c(-c2cc3n(n2)CCCC3N2CCC(O)C2)cccc1-c1cccc(-c2cc3n(n2)CCCC3N2CCC(O)C2)c1C` [Compound 156, (3R,3'R)-1,1'-(2,2'-(2,2'-dimethyl-[1,1'-biphenyl]-3,3'-diyl)bis(4,5,6,7-tetrahydropyrazolo[1,5-a]pyridine-4,2-diyl))bis(pyrrolidin-3-ol)]: the IC50 was 100 to 1000 nM. For `O=C(O)CNC1CCCn2nc(C(=O)Nc3cccc(-c4cccc(Nc5nc(C(F)F)nc6cc(CN7CC[C@@H](O)C7)cnc56)c4Cl)c3Cl)cc21` (stereo partly drawn) [Compound 143, 2-((2-((2,2'-dichloro-3'-((2-(difluoromethyl)-7-(((R)-3-hydroxypyrrolidin-1-yl)methyl)pyrido[3,2-d]pyrimidin-4-yl)amino)-[1,1'-biphenyl]-3-yl)carbamoyl)-4,5,6,7-tetrahydropyrazolo[1,5-a]pyridin-4-yl)amino)acetic acid] the value was under 10 nM. As to `CC(=O)NCCNC1CCCn2nc(C(=O)Nc3cccc(-c4cccc(Nc5nccc6cc(CN7CC[C@@H](O)C7)cnc56)c4C)c3Cl)cc21` (stereo partly drawn) [Compound 30, 4-((2-acetamidoethyl)amino)-N-(2-chloro-3'-((3-(((R)-3-hydroxypyrrolidin-1-yl)methyl)-1,7-naphthyridin-8-yl)amino)-2'-methyl-[1,1'-biphenyl]-3-yl)-4,5,6,7-tetrahydropyrazolo[1,5-a]pyridine-2-carboxamide], the IC50 is under 10 nM. For `CC(C)c1nc(Nc2cccc(-c3cccc(NC(=O)c4cc5n(n4)CCC[C@@H]5NC(C)(C)C(=O)O)c3Cl)c2Cl)c2ncccc2n1` (stereo in doubt) [Compound 300, (S)-2-((2-((2,2'-dichloro-3'-((2-isopropyl-pyrido[3,2-d]pyrimidin-4-yl)amino)-[1,1'-biphenyl]-3-yl)carbamoyl)-4,5,6,7-tetrahydropyrazolo[1,5-a]pyridin-4-yl)amino)-2-methylpropanoic acid] the value was 10 to 100 nM; for `O=C(Nc1cccc(-c2cccc(Nc3nccc4nccnc34)c2Cl)c1Cl)c1cc2n(n1)CCC[C@@H]2N1CCC(C(=O)O)CC1` [Compound 257, (S)-1-(2-((2,2'-dichloro-3'-(pyrido[3,4-b]pyrazin-5-ylamino)-[1,1'-biphenyl]-3-yl)carbamoyl)-4,5,6,7-tetrahydropyrazolo[1,5-a]pyridin-4-yl)piperidine-4-carboxylic acid], 10 to 100 nM. With `Cc1nc(Nc2cccc(-c3cccc(NC(=O)c4cc5n(n4)CCC[C@@H]5N4CCC(C(=O)O)CC4)c3Cl)c2Cl)c2ncccc2n1` [Compound 254, (S)-1-(2-((2,2'-dichloro-3'-((2-methylpyrido[3,2-d]pyrimidin-4-yl)amino)-[1,1'-biphenyl]-3-yl)carbamoyl)-4,5,6,7-tetrahydropyrazolo[1,5-a]pyridin-4-yl)piperidine-4-carboxylic acid] the figure was 10 to 100 nM.
